Reference: patent US8252832B2, “Kinesin inhibitors as cancer therapeutics” (Novartis AG, priority 2007, dated 2012)
pEC50: −log10 of the molar value.

What was measured:
[1] = tested on: primary blast cells from AML patients; assay: Colony formation assay in methylcellulose containing medium, AML blasts; assay type: cell-based, human
Experimental: Primary blast cells from AML patients were tested for sensitivity to compound IIa as shown below. Frozen AML blasts from peripheral blood were obtained from AllCell LLC. (Emeryville, Calif.). Three frozen vials containing ˜1×10^7 PBMCs were purchased. Peripheral blood mononuclear cells (PBMCs) from three newly diagnosed AML patients with a high percentage of blasts (#06-188, 80%; #06-366, 88%; #06-503, 73%) were cultured for several weeks and treated with the KSP inhibitors. The vials were rapidly thawed and the cells were cultured in Iscove's DMEM supplemented with 10% FBS and the following cytokines all at 10 ng/ml: GM-CSF, G-CSF, SCF, IL-3, and IL-6 (all from R&D Systems). Three assays were performed on the cells as follows: • CellTiter-Glo® assay on AML blasts. PBMCs containing AML blasts were seeded in 96-well plates (5000/well) and treated with various concentrations of the compound IIa (10 pM to 10 nM) for 48 hours before cells survival was measured as described above. GI50 values (nM) were calculated as for cell lines. • Cell cycle analysis using propidium iodide staining. […] The DNA content of the fixed and stained cells was analyzed by the BD FACSCalibur flow cytometer using the CellQuest software. • Colony formation assay in methylcellulose containing medium. […] Colonies were counted under a microscope after 2 weeks. […]

T47-D = assay: Caspase-Glo 3/7 assay; assay type: cell-based; conditions: Homo sapiens, T47D
Description: (§1) Identification of tumor types that are the most sensitive to the KSP inhibitors of the present invention can be accomplished using an unbiased approach that uses several cell-based assays. The assays chosen were as follows: • CellTiter-Glo®. This is an assay designed to measure ATP concentration in a cell culture, and can be correlated to cell number. Briefly CellTiter-Glo® (Promega Corporation) is a homogeneous method using the single CellTiter-Glo® reagent to detect ATP wherein ATP in the assay drives the activity of a thermostable luciferase to create a luminescent signal which can then be measured and correlated with the number of viable cells. Briefly, for adherent cells, 1,000 to 5,000 cells/well were plated in 96-well plates (100 μl/well) and let to adhere for 24 hours before being treated with drug. For non-adherent cells, 1,000 to 10,000 cells/well were plated in 96-well plates (100 μl/well) and immediately treated with drug. Drug dilutions were prepared in DMSO at 1000 times the final concentration. These dilutions were then diluted 1/100 in growth media before being added to the cells (11 μl/well) to achieve the desired final concentration. After 48 h in a 37° C. tissue culture incubator, the plates were processed for the CellTiter-Glo®assay according to the manufacturer's instructions. Protocol for a 72 hour cell proliferation assay: The 72 hour assay was performed the same way as the 48 hour assay except for the following modifications: For adherent cells, 500 to 5,000 cells/well were plated in 96-well plates (90 μl/well cell growth media) and left to adhere for 24 hours before being treated with drug. For non-adherent cells, 1,000 to 10,000 cells/well were plated in 96-well plates (90 μl/well cell growth media) and immediately treated with drug. Data values presented represent the concentration of test compound required for a 50% reduction in growth. • LDH release. The Cytotoxicity Detection KitPLUS (LDH) assay (Roche Diagnostics, Manheim, Germany) measures the amount of LDH released in the media by dying cells; LDH catalyzes the conversion of lactate into pyruvate. The enzymatic reaction is coupled to a chemical reaction that uses a tetrazolium salt to form a formazan that is red and can be detected by its absorbance at 490 nm. This assay measures the amount of cell death after drug treatment. Cells were plated at 10,000 cells/well in 96-well plates (100 μl/well). Adherent cells were let to adhere for 24 hours before being treated with drug, whereas non-adherent cells were immediately treated with drug. Drug dilutions were prepared in DMSO at 1000 times the final concentration. These dilutions were then diluted 1/100 in growth media before being added to the cells (11 μl/well) to achieve the desired final concentration. After 48 h in a 37° C. tissue culture incubator, the plates were processed for the Cytotoxicity Detection KitPLUS (LDH) assay according to the manufacturer's instructions. The media only values were subtracted from all the data points before analysis. Data values presented correspond to the compound concentration wherein LDH output is at half maximal level. • Caspase-Glo® 3/7. The Caspase-Glo® 3/7 Assay (Promega Corporation) is a homogeneous luminescent assay that measures caspase-3/7 activities. The assay provides a proluminescent caspase-3/7 DEVD-aminoluciferin substrate and a thermostable luciferase in a reagent optimized for caspase-3/7 activity, luciferase activity and cell lysis. Adding the single Caspase-Glo® 3/7 Reagent results in cell lysis, followed by caspase cleavage of the substrate. This liberates free aminoluciferin, which is consumed by the luciferase, generating a luminescent signal. The signal is proportional to caspase-3/7 activity. Data values presented correspond to the compound concentration wherein caspase 3/7 activity is at half maximal level.

MV4; 11 = assay: Caspase-Glo 3/7 assay; assay type: cell-based; conditions: Homo sapiens
Description: as §1

HCT-116 = assay: Caspase-Glo 3/7 assay; assay type: cell-based; conditions: Homo sapiens
Description: as §1

Colo-205 = assay: Caspase-Glo 3/7 assay; assay type: cell-based; conditions: Homo sapiens
Description: as §1

CC(C)(C)[C@H](c1nc(-c2cc(F)ccc2F)cn1Cc1ccccc1)N(CC[C@H](N)CF)C(=O)CO [Compound IIa]
colonies ([1]; 0.5 nM and above, samples #06-366, #06-188, #06-503, 2 weeks): absent
number of colonies ([1]; sample #06-366, 0.2 nM, 2 weeks): markedly reduced
pEC50 (T47-D; 48 h): 9.41
pEC50 (T47-D; 72 h): 9.40
pEC50 (MV4; 11; MV4;11, 24 h): 10.70
pEC50 (MV4; 11; MV4;11, 48 h): 10.52
pEC50 (HCT-116; HCT-116, 24 h): 9.92
pEC50 (HCT-116; HCT-116, 48 h): 10.05
pEC50 (Colo-205; Colo-205, 24 h): 9.89
pEC50 (Colo-205; Colo-205, 48 h): 9.68
pEC50 (Colo-205; Colo-205, 72 h): 9.72
